Reference: paper PMC12090182, “Repurposing of the RIPK1-Selective Benzo[1,4]oxazepin-4-one Scaffold for the Development of a Type III LIMK1/2 Inhibitor” (ACS Chemical Biology, 2025)
Like-named read-outs stand apart in the source and are kept apart here.

Legend:
Type in all cases: cell-based
[1] = test system: MRC-9 cells; assay: Multiplex high-content viability assessment; conditions: human fibroblast
Experimental: (§1) To assess the influence on cell health, a high-content screening in living cells called the multiplex high-content assay, as described previously by Tjaden et al., was performed.[38] In brief, HEK293T (ATCC CRL-1573) and U2OS (ATCCHTB-96) were cultured in DMEM plus L-glutamine (high glucose) supplemented by 10% FBS (Gibco) and penicillin/streptomycin (Gibco). MRC-9 fibroblasts ([…]) were cultured in EMEM plus L-glutamine supplemented by 10% FBS (Gibco) and penicillin/streptomycin (Gibco). Cells were seeded at a density of 1250 cells per well in a 384-well plate in a culture medium (cell culture microplate, PS, f-bottom, μClear, 781091, Greiner), with a volume of 50 μL per well. All outer wells were filled with 100 μL of PBS buffer (Gibco). […] The cell shape and fluorescence were measured before treatment and 12, 24, and 48 h after compound treatment using the CQ1 high-content confocal microscope (Yokogawa, Musashino, Japan). […] The compounds were tested at 1 and 10 μM, respectively. Acquired images of the cells were processed using Yokogawa CellPathfinder software (v3.04.02.02). […] Results were normalized to cells exposed to 0.1% DMSO. All compounds were tested in biological duplicates, and SEM (standard error of mean) was calculated of biological duplicates.

[2] = test system: HEK293T cells; conditions: human
Experimental: as §1

[3] = test system: U2OS cells; conditions: human, 24 h, 1 µM
Experimental: as §1

[4] = 1 µM, 0 h, biological replicate 1
[5] = 1 µM, 12 h, biological replicate 1
[6] = 1 µM, 24 h, biological replicate 1
[7] = 1 µM, 48 h, biological replicate 1
[8] = 1 µM, 0 h after treatment, biological replicate 2
[9] = 1 µM, 12 h after treatment, biological replicate 2
[10] = 1 µM, 24 h after treatment, biological replicate 2
[11] = 1 µM, 48 h after treatment, biological replicate 2
[12] = 10 µM, 0 h, biological replicate 1
[13] = 10 µM, 12 h, biological replicate 1
[14] = 10 µM, 24 h, biological replicate 1
[15] = 10 µM, 48 h, biological replicate 1
[16] = 10 µM, 0 h after treatment, biological replicate 2
[17] = 10 µM, 12 h after treatment, biological replicate 2
[18] = 10 µM, 24 h after treatment, biological replicate 2
[19] = 10 µM, 48 h after treatment, biological replicate 2

CCCCN(Cc1ccccc1)C(=O)c1ccc(S(=O)(=O)Nc2ccccc2)cc1 [TH257]
Cell count normalized to cells treated with DMSO control [1, 4]: 1.114 | Cell count per well [1, 4]: 167 | Population Fragmented Nuclei (%) [1, 4]: 8.59% | Population Healthy Nuclei (%) [1, 4]: 70.55% | Population Pyknosed Nuclei (%) [1, 4]: 20.86% | Population apoptotic cell (%) [1, 4]: 41.18% | Population cell that influence microtubule strucutre (%) [1, 4]: 18.26% | Population with increased mitochondrial mass (%) [1, 4]: 10.43% | Population with membrane disruption (%) [1, 4]: 0.87% | Cell count normalized to cells treated with DMSO control [1, 5]: 1.0759 | Cell count per well [1, 5]: 162 | Population Fragmented Nuclei (%) [1, 5]: 8.18% | Population Healthy Nuclei (%) [1, 5]: 74.84% | Population Pyknosed Nuclei (%) [1, 5]: 16.98% | Population apoptotic cell (%) [1, 5]: 37.04% | Population cell that influence microtubule strucutre (%) [1, 5]: 23.53% | Population with increased mitochondrial mass (%) [1, 5]: 5.88% | Population with membrane disruption (%) [1, 5]: 1.68% | Cell count normalized to cells treated with DMSO control [1, 6]: 1.074 | Cell count per well [1, 6]: 162 | Population Fragmented Nuclei (%) [1, 6]: 8.86% | Population Healthy Nuclei (%) [1, 6]: 76.58% | Population Pyknosed Nuclei (%) [1, 6]: 14.56% | Population apoptotic cell (%) [1, 6]: 43.48% | Population cell that influence microtubule strucutre (%) [1, 6]: 23.97% | Population with increased mitochondrial mass (%) [1, 6]: 5.79% | Population with membrane disruption (%) [1, 6]: 0.00% | Cell count normalized to cells treated with DMSO control [1, 7]: 1.094 | Cell count per well [1, 7]: 166 | Population Fragmented Nuclei (%) [1, 7]: 14.56% | Population Healthy Nuclei (%) [1, 7]: 76.58% | Population Pyknosed Nuclei (%) [1, 7]: 8.86% | Population apoptotic cell (%) [1, 7]: 64.29% | Population cell that influence microtubule strucutre (%) [1, 7]: 20.66% | Population with increased mitochondrial mass (%) [1, 7]: 0.83% | Population with membrane disruption (%) [1, 7]: 0.83% | Cell count normalized to cells treated with DMSO control [1, 8]: 1.076 | Cell count per well [1, 8]: 192 | Population Fragmented Nuclei (%) [1, 8]: 13.26% | Population Healthy Nuclei (%) [1, 8]: 56.35% | Population Pyknosed Nuclei (%) [1, 8]: 30.39% | Population apoptotic cell (%) [1, 8]: 34.55% | Population cell that influence microtubule strucutre (%) [1, 8]: 45.10% | Population with increased mitochondrial mass (%) [1, 8]: 3.92% | Population with membrane disruption (%) [1, 8]: 7.84% | Cell count normalized to cells treated with DMSO control [1, 9]: 1.0446 | Cell count per well [1, 9]: 174 | Population Fragmented Nuclei (%) [1, 9]: 19.08% | Population Healthy Nuclei (%) [1, 9]: 51.97% | Population Pyknosed Nuclei (%) [1, 9]: 28.95% | Population apoptotic cell (%) [1, 9]: 25.00% | Population cell that influence microtubule strucutre (%) [1, 9]: 64.56% | Population with increased mitochondrial mass (%) [1, 9]: 13.92% | Population with membrane disruption (%) [1, 9]: 7.59% | Cell count normalized to cells treated with DMSO control [1, 10]: 0.9402 | Cell count per well [1, 10]: 155 | Population Fragmented Nuclei (%) [1, 10]: 16.78% | Population Healthy Nuclei (%) [1, 10]: 57.34% | Population Pyknosed Nuclei (%) [1, 10]: 25.87% | Population apoptotic cell (%) [1, 10]: 35.14% | Population cell that influence microtubule strucutre (%) [1, 10]: 70.73% | Population with increased mitochondrial mass (%) [1, 10]: 4.88% | Population with membrane disruption (%) [1, 10]: 13.41% | Cell count per well [1, 11]: 166 | Population Fragmented Nuclei (%) [1, 11]: 32.10% | Population Healthy Nuclei (%) [1, 11]: 49.38% | Population Pyknosed Nuclei (%) [1, 11]: 18.52% | Population apoptotic cell (%) [1, 11]: 50.00% | Population cell that influence microtubule strucutre (%) [1, 11]: 76.25% | Population with increased mitochondrial mass (%) [1, 11]: 3.75% | Population with membrane disruption (%) [1, 11]: 8.75% | Cell count normalized to cells treated with DMSO control [1, 12]: 1.048 | Cell count per well [1, 12]: 157 | Population Fragmented Nuclei (%) [1, 12]: 18.47% | Population Healthy Nuclei (%) [1, 12]: 59.24% | Population Pyknosed Nuclei (%) [1, 12]: 22.29% | Population apoptotic cell (%) [1, 12]: 34.29% | Population cell that influence microtubule strucutre (%) [1, 12]: 23.66% | Population with increased mitochondrial mass (%) [1, 12]: 3.23% | Population with membrane disruption (%) [1, 12]: 0.00% | Cell count normalized to cells treated with DMSO control [1, 13]: 1.149 | Cell count per well [1, 13]: 173 | Population Fragmented Nuclei (%) [1, 13]: 12.35% | Population Healthy Nuclei (%) [1, 13]: 58.02% | Population Pyknosed Nuclei (%) [1, 13]: 29.63% | Population apoptotic cell (%) [1, 13]: 35.42% | Population cell that influence microtubule strucutre (%) [1, 13]: 80.85% | Population with increased mitochondrial mass (%) [1, 13]: 13.83% | Population with membrane disruption (%) [1, 13]: 4.26% | Cell count normalized to cells treated with DMSO control [1, 14]: 1.094 | Cell count per well [1, 14]: 165 | Population Fragmented Nuclei (%) [1, 14]: 16.25% | Population Healthy Nuclei (%) [1, 14]: 66.25% | Population Pyknosed Nuclei (%) [1, 14]: 17.50% | Population apoptotic cell (%) [1, 14]: 57.14% | Population cell that influence microtubule strucutre (%) [1, 14]: 88.68% | Population with increased mitochondrial mass (%) [1, 14]: 11.32% | Population with membrane disruption (%) [1, 14]: 1.89% | Cell count normalized to cells treated with DMSO control [1, 15]: 1.18 | Cell count per well [1, 15]: 179 | Population Fragmented Nuclei (%) [1, 15]: 23.84% | Population Healthy Nuclei (%) [1, 15]: 63.37% | Population Pyknosed Nuclei (%) [1, 15]: 12.79% | Population apoptotic cell (%) [1, 15]: 72.73% | Population cell that influence microtubule strucutre (%) [1, 15]: 85.32% | Population with increased mitochondrial mass (%) [1, 15]: 20.18% | Population with membrane disruption (%) [1, 15]: 0.92% | Cell count normalized to cells treated with DMSO control [1, 16]: 0.8298 | Cell count per well [1, 16]: 148 | Population Fragmented Nuclei (%) [1, 16]: 24.82% | Population Healthy Nuclei (%) [1, 16]: 45.39% | Population Pyknosed Nuclei (%) [1, 16]: 29.79% | Population apoptotic cell (%) [1, 16]: 47.62% | Population cell that influence microtubule strucutre (%) [1, 16]: 40.63% | Population with increased mitochondrial mass (%) [1, 16]: 9.38% | Population with membrane disruption (%) [1, 16]: 3.13% | Cell count normalized to cells treated with DMSO control [1, 17]: 0.8645 | Cell count per well [1, 17]: 144 | Population Fragmented Nuclei (%) [1, 17]: 24.46% | Population Healthy Nuclei (%) [1, 17]: 56.83% | Population Pyknosed Nuclei (%) [1, 17]: 18.71% | Population apoptotic cell (%) [1, 17]: 50.00% | Population cell that influence microtubule strucutre (%) [1, 17]: 86.08% | Population with increased mitochondrial mass (%) [1, 17]: 13.92% | Population with membrane disruption (%) [1, 17]: 12.66% | Cell count normalized to cells treated with DMSO control [1, 18]: 0.8917 | Cell count per well [1, 18]: 147 | Population Fragmented Nuclei (%) [1, 18]: 25.18% | Population Healthy Nuclei (%) [1, 18]: 59.71% | Population Pyknosed Nuclei (%) [1, 18]: 15.11% | Population apoptotic cell (%) [1, 18]: 57.14% | Population cell that influence microtubule strucutre (%) [1, 18]: 91.57% | Population with increased mitochondrial mass (%) [1, 18]: 19.28% | Population with membrane disruption (%) [1, 18]: 4.82% | Cell count normalized to cells treated with DMSO control [1, 19]: 0.964 | Cell count per well [1, 19]: 157 | Population Fragmented Nuclei (%) [1, 19]: 30.32% | Population Healthy Nuclei (%) [1, 19]: 59.35% | Population Pyknosed Nuclei (%) [1, 19]: 10.32% | Population apoptotic cell (%) [1, 19]: 56.25% | Population cell that influence microtubule strucutre (%) [1, 19]: 89.13% | Population with increased mitochondrial mass (%) [1, 19]: 18.48% | Population with membrane disruption (%) [1, 19]: 0.00% | Population with membrane disruption (%) ([2]; 0 h, 1 µM): 0.00% | Population with membrane disruption (%) ([2]; 0 h, 10 µM): 0.00% | Population with membrane disruption (%) ([2]; 24 h, 10 µM): 0.00% | Cell count per well [3]: 316
